We go through 22 compounds from patent US6413995B1, “Cinnamamide derivatives and drug compositions containing the same” (Tsumura & Co., priority 1999, dated 2002).

Structures are written as SMILES. Like-named read-outs stand apart in the source and are kept apart here. Bounds are passed on as bounds.

For test [1], the system named is IL-12. In words: Inhibition of IL-12 production by mouse peritoneal macrophages (ELISA). To be noted: Macrophage, read-out: Inhibitory rate (%) IL-12; for inhibition at 10 µM: 10 μM/L; for inhibition at 1 µg/mL: 1 μg/ml; for inhibition at 5 µg/mL: 5 μg/ml; for inhibition at 10 µg/mL: 10 μg/ml. The format is cell-based, mice. How it is done: (§1) C57BL/6CrSlc male mice were intraperitoneally injected with 2.0 ml of 3% Brewer tioglycolate medium. Three days later, macrophages were collected from the abdominal cavity with 5.0 ml Hank's balanced salt solution, and then equally divided into each well of a 48-well plate using RPMI 1640 medium supplemented with 10% FBS (Fetal Bovine Serum), followed by incubation in a CO2 incubator for 1 hour. After the macrophages adhered to the walls of the plate, they were incubated for 48 hours in the presence of a test compound with different concentrations. Following the incubation, the supernatant was collected from each well, assayed for IL-6, IL-10 and L-12 by ELISA to determine inhibitory rates against the production of these interleukins.
Background: In an ELISA, binding on a coated surface is turned into a signal by an enzyme label.

In test [2] the target is T1, Thromboxane A2 Synthase (Rattus norvegicus, UniProt P49430).
T1 construct: centrifuged at 1,300 rpm for 7 minutes to obtain platelet rich plasma (PRP); from tissue; host or cells: platelet rich plasma (washed platelets) from the abdominal aorta blood of Sprague-Dawley rats
T1 sequence (P49430 1-533): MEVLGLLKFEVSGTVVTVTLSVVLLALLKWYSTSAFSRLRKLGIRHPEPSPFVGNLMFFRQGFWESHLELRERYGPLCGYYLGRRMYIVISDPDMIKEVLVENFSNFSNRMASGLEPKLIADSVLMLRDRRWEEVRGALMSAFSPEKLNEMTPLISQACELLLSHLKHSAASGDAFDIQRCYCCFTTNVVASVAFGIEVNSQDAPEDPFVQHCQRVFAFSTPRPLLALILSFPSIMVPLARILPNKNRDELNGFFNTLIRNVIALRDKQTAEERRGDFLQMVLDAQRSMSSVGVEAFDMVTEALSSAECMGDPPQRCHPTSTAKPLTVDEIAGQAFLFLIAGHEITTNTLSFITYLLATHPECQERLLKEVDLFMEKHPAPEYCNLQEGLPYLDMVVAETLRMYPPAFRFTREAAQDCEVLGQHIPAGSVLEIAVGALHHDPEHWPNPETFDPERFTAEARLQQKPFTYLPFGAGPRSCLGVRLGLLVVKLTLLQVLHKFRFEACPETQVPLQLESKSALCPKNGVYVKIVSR
In words: Inhibitory effect on thromboxane A2 synthase: TXB2 in rat platelet rich plasma. The format is cell-based, rats. Particulars: 10 μmol/l, rat PRP. As to the method: Eight week old Sprague-Dawley male rats were used in this example. The rats were anesthetized with pentobarbital sodium. The blood was collected from the abdominal aorta using a heparinized syringe, and centrifuged at 1,300 rpm for 7 minutes to obtain platelet rich plasma (PRP). PRP was suspended in an equivalent volume of a buffer containing 25 mmol/l Tris-HCl, 130 mmol/l sodium chloride and 0.3 mmol/l EDTA (pH 7.4)(buffer A), followed by centrifugation at 4° C., at 1,500 rpm for 5 minutes. This procedure was repeated twice, and PRP was finally suspended in a buffer containing 25 mmol/l Tris-HCl, 130 mmol/l, 0.1% glucose and 0.1% albumin (pH7.4)(buffer B).
5×10^6 cells/mm^3 PRP preparation in buffer B was divided into each well of a 96-well plate in an amount of 150 μl/well. Each test substance was prepared at a final concentration of 10 μmol/l and added to the PRP preparation in an amount of 50 μl/well. Immediately after addition of the test substance, 5 μl of an aggregation-inducing agent, type IV collagen (1 mg/ml) or arachidonic acid (50 mmol/l), was added and incubated for 10 minutes. 20 μl of an EDTA-indomethacin solution was added to the each well to stop the reaction. The supernatant was assayed for thromboxane B2 (TXB2), stable metabolite of thromboxane A2 (TXA2), using a TXB2 measurement kit (Cayman).

Test [3] relates to IL-10. The test can be described thus: Inhibition of IL-10 production by mouse peritoneal macrophages (ELISA). In kind it is cell-based, mice. Particulars: Macrophage, 48 hours, read-out: Inhibitory rate (%) IL-10; for inhibition at 1 µg/mL: 1 μg/ml; for inhibition at 5 µg/mL: 5 μg/ml; for inhibition at 10 µg/mL: 10 μg/ml. How it is done: as §1
Test [4] has as its system IL-6. In words: Inhibition of IL-6 production by mouse peritoneal macrophages (ELISA). The format is cell-based, mice. To be noted: Macrophage, 48 hours, read-out: Inhibitory rate (%) IL-6; for inhibition at 1 µg/mL: 1 μg/ml; for inhibition at 5 µg/mL: 5 μg/ml; for inhibition at 10 µg/mL: 10 μg/ml. How it is done: as §1
The test system of test [5] is Rats with Minimal Change Nephrosis. The test can be described thus: Inhibitory effects on urinary proteins in rats with minimal change nephrosis (Puromycin Aminonucleoside). The format is in vivo. To be noted: S.D. male rats, PA 50 mg/kg i.v., test drug 2 mg/kg/day from day 6 to day 11, assayed at day 11. As to the method: Six week old S.D. male rats were intravenously injected with Puromycin Aminonucleoside (PA; SIGMA)at a dose of 50 mg/kg so as to develop nephrosis. Six days after PA treatment, the rats were administered with a test drug at a dose of 2 mg/kg/day by day 11. Each rat was assayed for an excreted urinary protein level at day 11 to determine an inhibitory rate.

Where [6] appears, read: arachidonic acid, 10 minutes, read-out: TXB2 induced by arachidonic acid (Inhibitory rate; %).
The mark [7] stands for this setting: type IV collagen, 10 minutes, read-out: TXB2 induced by collagen (Inhibitory rate; %).
The mark [8] stands for this setting: summary of Table 3, read-out: inhibitory activity against TXA2 production mediated by collagen or arachidonate.

Regarding `N#C/C(=C\c1ccc(OCC(=O)O)cc1)C(=O)NCc1cccnc1` [Example 82, Sodium [4-[2-Cyano-2-[N-(3-pyridylmethyl)carbamoyl]ethenyl]phenoxy]acetate], the inhibition at 10 µM in test [1] (48 h) was determined as 30.7%.

Consider `O=C(O)COc1ccccc1/C=C/C(=O)NCc1cccnc1` [Example 37], for which the inhibition at 10 µM in test [2] (setting [6]) and in test [2] (setting [7]) was 26% throughout.

With `COC(=O)/C=C/c1ccc(/C=C/C(=O)NCc2cccnc2)cc1` [Example 76], the inhibition at 10 µM in test [1] (48 hours) is 50%.

Turning to `O=C(O)COc1ccc(/C=C/C(=O)NCCc2ccccn2)cc1` [Example 73], the inhibition at 10 µM in test [2] (setting [6]) stood at 23%; in test [2] (setting [7]), 47%.

As for `COC(=O)CC(O)c1ccc(/C=C/C(=O)NCc2cccnc2)cc1` (stereo not drawn) [Example 80, methyl 3-hydroxy-3-[4-[2-[N-(3-pyridylmethyl)carbamoyl]ethenyl]phenyl]propionate], the inhibition at 10 µM in test [1] (48 hours) was determined as 52.3%.

On to `CN(C)C(=O)COc1ccc(/C=C(\C#N)C(=O)NCc2cccnc2)cc1` [Example 84], for which the inhibition at 10 µM in test [1] (48 hours) came to 38.9%.

For the compound `CNC(=S)COc1ccccc1/C=C/C(=S)NCc1cccnc1` [Example 65, (E)-3-[2-[[N-(Methyl)thiocarbamoyl]methoxy]phenyl]-N-(3-pyridylmethyl)-2-propenoic Acid Thioamide], the inhibition at 10 µM in test [2] (setting [6]) was 23%; in test [2] (setting [7]), 12%.

Turning to `O=C(/C=C/c1ccccc1OCC(=O)NO)NCc1cccnc1` [Example 53], the results for the inhibition at 10 µM in test [2] (setting [6]), in test [2] (setting [7]) and in test [2] (setting [8]) were 56%, 43% and at least 50%, respectively.

As to `N#C/C(=C\c1ccc(OCC(=O)O)cc1)C(=O)NCc1cccnc1` [Example 83, [4-[2-Cyano-2-[N-(3-pyridylmethyl)carbamoyl]ethenyl]phenoxy]acetic Acid], the inhibition at 10 µM in test [1] (48 hours) is 40.9%.

Regarding `COC(=O)COc1ccc(/C=C/C(=O)NCCc2ccccn2)cc1` [Example 16], in test [3], the inhibition at 1 µg/mL stood at 49.9%, the inhibition at 5 µg/mL came out at 50.1% and the inhibition at 10 µg/mL turned out to be 34.9%. In addition, in test [1] (48 hours), the inhibition at 1 µg/mL stood at 31.4%, the inhibition at 5 µg/mL was 47.4% and the inhibition at 10 µg/mL was 40.3%. Further, in test [4], the inhibition at 1 µg/mL was found to be 26.1%, the inhibition at 5 µg/mL was 41.3% and the inhibition at 10 µg/mL is 79%. For the same compound, in test [5], the “Inhibitory rate (%) of excreted urinary protein level” value stood at 42%.

`CN(Cc1cccnc1)C(=O)/C=C/c1ccc(OCC(=O)O)cc1` [Example 72]: the inhibition at 10 µM was 61% in test [2] (setting [6]), 46% in test [2] (setting [7]) and at least 50% in test [2] (setting [8]).

Turning to `COC(=O)COc1ccc(/C=C/C(=O)NCc2cccnc2)cc1` [Example 7, methyl [4-[(E)-2-[N-(3-pyridylmethyl)carbamoyl]ethenyl]phenoxy]acetate], in test [3], the inhibition at 1 µg/mL came to 17.9%, the inhibition at 5 µg/mL is 1.3% and the inhibition at 10 µg/mL came to 25.4%. In addition, in test [1] (48 hours), the inhibition at 1 µg/mL came out at 28.4%, the inhibition at 5 µg/mL was determined as 40.1% and the inhibition at 10 µg/mL came out at 52.5%. In test [4], the inhibition at 1 µg/mL is 13.5%, the inhibition at 5 µg/mL amounted to 31.5% and the inhibition at 10 µg/mL worked out at 32.5%. The “Inhibitory rate (%) of excreted urinary protein level” value in test [5] is recorded as 50%.

Take `COC(=O)COc1ccc(/C=C/C(=O)NCCc2ccncc2)cc1` [Example 30]: the inhibition at 10 µg/mL in test [3] is -38.9%; in test [1] (48 hours), 71.7%; in test [4] it was 58.8%.

Regarding `O=C(/C=C/c1ccc(OC(F)(F)C(=O)O)cc1)NCc1cccnc1` [Example 74], in test [1] (48 hours), the inhibition at 10 µM is 51.1%.

Regarding `COC(=O)CCc1ccc(/C=C/C(=O)NCCc2ccccn2)cc1` [Example 78], in test [1] (48 hours), the inhibition at 10 µM stood at 49.2%.

On to `COC(=O)COc1ccc(/C=C/C(=O)NCc2ccccn2)cc1` [Example 29], for which the inhibition at 10 µg/mL in test [3] is -25.7%; in test [1] (48 hours), 37.6%; in test [4], -9.5%.

Turning to `O=C(O)CNc1ccc(/C=C/C(=O)NCc2cccnc2)cc1` [Example 88, [[4-[(E)-2-[N-(3-Pyridylmethyl)carbamoyl]ethenyl]phenyl]amino]acetic Acid], the inhibition at 10 µM in test [1] (48 hours) turned out to be 26.4%.

As to `CCOC(=O)COc1ccc(/C=C/C(=O)N(C)Cc2cccnc2)cc1` [Example 2, Ethyl [4-[(E)-2-[N-Methyl-N-(3-pyridylmethyl)carbamoyl]ethenyl]phenoxy]-acetate], the figures for the inhibition at 10 µg/mL in test [3], in test [1] (48 hours) and in test [4] were 27.8%, 35% and 58.8%, respectively. Further, the inhibition at 50 µg/mL in test [3] (50 μg/ml) is 51.4%; in test [1] (50 μg/ml, 48 hours), 63.8%; in test [4] (50 μg/ml), 78.9%. The inhibition at 100 µg/mL in test [3] (100 μg/ml) was 50%; in test [1] (100 μg/ml, 48 hours), 65.4%; in test [4] (100 μg/ml), 88%.

On to `NC(=O)COc1ccc(/C=C/C(=O)NCc2cccnc2)cc1` [Example 41], for which the inhibition at 10 µM amounted to 36% in test [2] (setting [6]) and 14% in test [2] (setting [7]).

For the compound `CCOC(=O)COc1ccc(/C=C(\C#N)C(=O)NCc2cccnc2)cc1` [Example 81, Ethyl [4-[2-Cyano-2-[N-(3-pyridylmethyl)carbamoyl]ethenyl]phenoxy]acetate], the inhibition at 10 µM in test [1] (48 hours) was found to be 41%.

Regarding `CCOC(=O)COc1ccc(/C(C)=C/C(=O)NCc2cccnc2)cc1` [Example 85, Ethyl [4-[(E)-1-Methyl-2-[N-(3-Pyridylmethyl)carbamoyl]ethenyl]phenoxy]acetate], the inhibition at 10 µM in test [1] (48 hours) worked out at 47.4%.

On to `O=C(O)CCc1ccc(/C=C/C(=O)NCCc2ccccn2)cc1` [Example 79], for which the inhibition at 10 µM in test [1] (48 hours) is 43%.
